{"source": "patent US12129237B2", "about": "“Substituted diaminocarboxamide and diaminocarbonitrile pyrimidines, compositions thereof, and methods of treatment therewith” (SIGNAL PHARMACEUTICALS, LLC, priority 2011, dated 2024)", "data": [{"target": "T1, JNK1 (Homo sapiens, UniProt P45983)", "T1 construct": "purchased Carna Biosciences", "T1 sequence (P45983 whole entry)": "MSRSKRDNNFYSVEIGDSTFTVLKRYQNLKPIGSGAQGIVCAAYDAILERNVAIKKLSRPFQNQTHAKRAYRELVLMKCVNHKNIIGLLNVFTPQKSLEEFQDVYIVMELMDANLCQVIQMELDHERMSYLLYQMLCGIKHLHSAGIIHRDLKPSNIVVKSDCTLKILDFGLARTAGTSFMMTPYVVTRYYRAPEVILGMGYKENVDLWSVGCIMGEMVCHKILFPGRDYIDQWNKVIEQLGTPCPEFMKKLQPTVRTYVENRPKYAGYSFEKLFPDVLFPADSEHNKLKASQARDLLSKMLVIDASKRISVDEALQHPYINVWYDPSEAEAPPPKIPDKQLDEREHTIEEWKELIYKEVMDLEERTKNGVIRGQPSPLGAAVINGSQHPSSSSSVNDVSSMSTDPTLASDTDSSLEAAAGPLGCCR", "assay": "JNK1 biochemical assays (one or more of: time resolved fluorescence, Z'-LYTE Cascade, radioactive)", "conditions": "one or more of the JNK1 biochemical assays; read-out: Act. Level (JNK1 IC50 activity level)", "units": {"IC50": "µM"}, "values": [{"smiles": "NC(=O)c1cnc(N[C@H]2CC[C@H](OCC(F)(F)F)CC2)nc1N[C@@H]1CCC[C@H]1CO", "note": "[Example 331, 4-((1R,2R)-2-(hydroxymethyl)cyclopentylamino)-2-((1r,4R)-4-(2,2,2-trifluoroethoxy)cyclohexylamino)pyrimidine-5-carboxamide]", "IC50": "< 0.2"}, {"smiles": "CCO[C@H]1CC[C@H](Nc2ncc(C(N)=O)c(NC(C)(C)C(C)(C)C)n2)CC1", "note": "[Example 332, 2-((1r,4r)-4-ethoxycyclohexylamino)-4-(2,3,3-trimethylbutan-2-ylamino)pyrimidine-5-carboxamide]", "IC50": "< 0.2"}, {"smiles": "CO[C@H]1CC[C@H](Nc2ncc(C(N)=O)c(NC(C)(C)C(C)(C)C)n2)CC1", "note": "[Example 333, 2-((1r,4r)-4-methoxycyclohexylamino)-4-(2,3,3-trimethylbutan-2-ylamino)pyrimidine-5-carboxamide]", "IC50": "< 0.2"}, {"smiles": "CC(C)(C)C(C)(C)Nc1nc(N[C@H]2CC[C@H](O)CC2)ncc1C(N)=O", "note": "[Example 334, 2-((1r,4r)-4-hydroxycyclohexylamino)-4-(2,3,3-trimethylbutan-2-ylamino)pyrimidine-5-carboxamide]", "IC50": "< 0.2"}, {"smiles": "NC(=O)c1cnc(NC23CCC(F)(CC2)CC3)nc1N[C@@H]1CCCC[C@H](O)C1", "note": "[Example 335, 2-(4-fluorobicyclo[2.2.2]octan-1-ylamino)-4-((1R,3S)-3-hydroxycycloheptylamino)pyrimidine-5-carboxamide]", "IC50": "< 0.2"}, {"smiles": "CO[C@H]1CC[C@H](Nc2ncc(C(N)=O)c(N[C@H]3C[C@H](C)C3)n2)CC1", "note": "[Example 336, 2-((1r,4r)-4-methoxycyclohexylamino)-4-((1r,3r)-3-methylcyclobutylamino)pyrimidine-5-carboxamide]", "IC50": "< 0.2"}, {"smiles": "CO[C@H]1CC[C@H](Nc2ncc(C(N)=O)c(N[C@H]3C[C@@H](C)C3)n2)CC1", "note": "[Example 337, 2-((1r,4r)-4-methoxycyclohexylamino)-4-((1s,3s)-3-methycyclobutylamino)pyrimidine-5-carboxamide]", "IC50": "< 0.2"}, {"smiles": "CC(C)Nc1ncc(C(N)=O)c(N[C@@H]2CCC[C@](C)(O)C2)n1", "note": "[Example 338, 4-((1R,3S)-3-hydroxy-3-methylcyclohexylamino)-2-(isopropylamino)pyrimidine-5-carboxamide]", "IC50": "< 0.2"}, {"smiles": "NC(=O)c1cnc(NC2CCC2)nc1N[C@@H]1CCCC[C@H](O)C1", "note": "[Example 339, 2-(cyclobutylamino)-4-((1R,3S)-3-hydroxycycloheptylamino)pyrimidine-5-carboxamide]", "IC50": "< 0.2"}, {"smiles": "C[C@]1(O)CCC[C@@H](Nc2nc(NC3CCC3)ncc2C(N)=O)C1", "note": "[Example 340, 2-(cyclobutylamino)-4-((1R,3S)-3-hydroxy-3-methylcyclohexylamino)pyrimidine-5-carboxamide]", "IC50": "< 0.2"}, {"smiles": "NC(=O)c1cnc(NC2CCC2)nc1N[C@@H]1CCC[C@H](O)C1", "note": "[Example 341, 2-(cyclobutylamino)-4-((1R,3S)-3-hydroxycyclohexylamino)pyrimidine-5-carboxamide]", "IC50": "< 0.2"}, {"smiles": "CC1(C)CCC(Nc2nc(NC(C)(C)C)ncc2C(N)=O)C(O)C1", "note": "(centres unmarked) [Example 342, 2-(tert-butylamino)-4-(2-hydroxy-4,4-dimethylcyclohexylamino)pyrimidine-5-carboxamide]", "IC50": "0.2 to 0.8"}, {"smiles": "CC1(C)CCC(Nc2nc(NC(C)(C)C)ncc2C(N)=O)C(O)C1", "note": "(centres unmarked) [Example 343, 2-(tert-butylamino)-4-(2-hydroxy-4,4-dimethylcyclohexylamino)pyrimidine-5-carboxamide]", "IC50": "< 0.2"}, {"smiles": "CCO[C@H]1CC[C@H](Nc2ncc(C(N)=O)c(NC34CC(C3)C4)n2)CC1", "note": "[Example 344, 4-(bicyclo[1.1.1]pentan-1-ylamino)-2-((1r,4r)-4-ethoxycyclohexylamino)pyrimidine-5-carboxamide]", "IC50": "< 0.2"}, {"smiles": "CCC(C)(CC)Nc1ncc(C(N)=O)c(N[C@@H]2CC[C@@H](C)[C@H](O)C2)n1", "note": "[Example 345, 4-((1R,3R,4R)-3-hydroxy-4-methylcyclohexylamino)-2-(3-methylpentan-3-ylamino)pyrimidine-5-carboxamide]", "IC50": "< 0.2"}, {"smiles": "NC(=O)c1cnc(NC23CC(C2)C3)nc1N[C@@H]1CCCC[C@H](O)C1", "note": "[Example 346, 2-(bicyclo[1.1.1]pentan-1-ylamino)-4-((1R,3S)-3-hydroxycycloheptylamino)pyrimidine-5-carboxamide]", "IC50": "< 0.2"}, {"smiles": "C[C@]1(O)CCC[C@@H](Nc2nc(NC34CC(C3)C4)ncc2C(N)=O)C1", "note": "[Example 347, 2-(bicyclo[1.1.1]pentan-1-ylamino)-4-((1R,3S)-3-hydroxy-3-methylcyclohexylamino)pyrimidine-5-carboxamide]", "IC50": "< 0.2"}, {"smiles": "CCC(C)(C)Nc1ncc(C(N)=O)c(N[C@@H]2CCCC[C@H](O)C2)n1", "note": "[Example 349, 4-((1R,3S)-3-hydroxycycloheptylamino)-2-(tert-pentylamino)pyrimidine-5-carboxamide]", "IC50": "< 0.2"}, {"smiles": "CCC(C)(C)Nc1ncc(C(N)=O)c(N[C@@H]2CCC[C@](C)(O)C2)n1", "note": "[Example 350, 4-((1R,3S)-3-hydroxy-3-methylcyclohexylamino)-2-(tert-pentylamino)pyrimidine-5-carboxamide]", "IC50": "< 0.2"}, {"smiles": "CCC(C)(C)Nc1ncc(C(N)=O)c(N[C@@H]2CCC[C@H](O)C2)n1", "note": "[Example 351, 4-((1R,3S)-3-hydroxycyclohexylamino)-2-(tert-pentylamino)pyrimidine-5-carboxamide]", "IC50": "< 0.2"}, {"smiles": "CC1(Nc2ncc(C(N)=O)c(N[C@@H]3CCCC[C@H](O)C3)n2)CCC1", "note": "[Example 352, 4-((1R,3S)-3-hydroxycycloheptylamino)-2-(1-methylcyclobutylamino)pyrimidine-5-carboxamide]", "IC50": "< 0.2"}, {"smiles": "CC1(Nc2ncc(C(N)=O)c(N[C@@H]3CCC[C@](C)(O)C3)n2)CCC1", "note": "[Example 353, 4-((1R,3S)-3-hydroxy-3-methylcyclohexylamino)-2-(1-methylcyclobutylamino)pyrimidine-5-carboxamide]", "IC50": "< 0.2"}, {"smiles": "CC1(Nc2ncc(C(N)=O)c(N[C@@H]3CCC[C@H](O)C3)n2)CCC1", "note": "[Example 354, 4-((1R,3S)-3-hydroxycyclohexylamino)-2-(1-methylcyclobutylamino)pyrimidine-5-carboxamide]", "IC50": "< 0.2"}, {"smiles": "NC(=O)c1cnc(N[C@H]2CC[C@H](O)CC2)nc1NC1(C2CC2)CC1", "note": "[Example 355, 4-(bi(cycloprop)ylamino)-2-((1r,4r)-4-hydroxycyclohexylamino)pyrimidine-5-carboxamide]", "IC50": "< 0.2"}, {"smiles": "CCC1(Nc2nc(N[C@H]3CC[C@H](O)CC3)ncc2C(N)=O)CC1", "note": "[Example 356, 4-(1-ethylcyclopropylamino)-2-((1r,4r)-4-hydroxycyclohexylamino)pyrimidine-5-carboxamide]", "IC50": "< 0.2"}, {"smiles": "CC1(Nc2nc(N[C@H]3CC[C@H](O)CC3)ncc2C(N)=O)CCCCC1", "note": "[Example 357, 2-((1r,4r)-4-hydroxycyclohexylamino)-4-(1-methylcyclohexylamino)pyrimidine-5-carboxamide]", "IC50": "< 0.2"}, {"smiles": "CO[C@H]1CC[C@H](Nc2ncc(C(N)=O)c(NC3(C)CCCCC3)n2)CC1", "note": "[Example 358, 2-((1r,4r)-4-methoxycyclohexylamino)-4-(1-methylcyclohexylamino)pyrimidine-5-carboxamide]", "IC50": "< 0.2"}, {"smiles": "CCO[C@H]1CC[C@H](Nc2ncc(C(N)=O)c(NC3(C)CCCCC3)n2)CC1", "note": "[Example 359, 2-((1r,4r)-4-ethoxycyclohexylamino)-4-(1-methylcyclohexylamino)pyrimidine-5-carboxamide]", "IC50": "< 0.2"}, {"smiles": "CCO[C@H]1CC[C@H](Nc2ncc(C(N)=O)c(NC3(CC)CCC3)n2)CC1", "note": "[Example 360, 2-((1r,4r)-4-ethoxycyclohexylamino)-4-(1-ethylcyclobutylamino)pyrimidine-5-carboxamide]", "IC50": "< 0.2"}, {"smiles": "CCC1(Nc2nc(N[C@H]3CC[C@H](OC)CC3)ncc2C(N)=O)CCC1", "note": "[Example 361, 4-(1-ethylcyclobutylamino)-2-((1r,4r)-4-methoxycyclohexylamino)pyrimidine-5-carboxamide]", "IC50": "< 0.2"}, {"smiles": "CCC1(Nc2nc(N[C@H]3CC[C@H](O)CC3)ncc2C(N)=O)CCC1", "note": "[Example 362, 4-(1-ethylcyclobutylamino)-2-((1r,4r)-4-hydroxycyclohexylamino)pyrimidine-5-carboxamide]", "IC50": "< 0.2"}, {"smiles": "CCC(CC)Nc1nc(N[C@H]2CC[C@H](O)CC2)ncc1C(N)=O", "note": "[Example 363, 2-((1r,4r)-4-hydroxycyclohexylamino)-4-(pentan-3-ylamino)pyrimidine-5-carboxamide]", "IC50": "< 0.2"}, {"smiles": "C[C@@H]1CC[C@@H](Nc2nc(NC3CCCC3)ncc2C(N)=O)C[C@H]1O", "note": "[Example 364, 2-(cyclopentylamino)-4-((1R,3R,4R)-3-hydroxy-4-methylcyclohexylamino)pyrimidine-5-carboxamide]", "IC50": "< 0.2"}, {"smiles": "CC(C)(C)Nc1ncc(C(N)=O)c(N[C@@H]2CCC[C@@H]2CO)n1", "note": "[Example 365, 2-(tert-butylamino)-4-((1R,2S)-2-(hydroxymethyl)cyclopentylamino)pyrimidine-5-carboxamide]", "IC50": "< 0.2"}, {"smiles": "CC(C)C(C)(C)Nc1ncc(C(N)=O)c(N[C@@H]2CC[C@@H](C)[C@H](O)C2)n1", "note": "[Example 366, 2-(2,3-dimethylbutan-2-ylamino)-4-((1R,3R,4R)-3-hydroxy-4-methylcyclohexylamino)pyrimidine-5-carboxamide]", "IC50": "< 0.2"}, {"smiles": "C[C@@H]1CC[C@@H](Nc2nc(NCC(C)(C)C)ncc2C(N)=O)C[C@H]1O", "note": "[Example 367, 4-((1R,3R,4R)-3-hydroxy-4-methylcyclohexylamino)-2-(neopentylamino)pyrimidine-5-carboxamide]", "IC50": "< 0.2"}, {"smiles": "NC(=O)c1cnc(N[C@H]2CC[C@H](OC3CC3)CC2)nc1NC12CC(C1)C2", "note": "[Example 368, 4-(bicyclo[1.1.1]pentan-1-ylamino)-2-((1r,4r)-4-cyclopropoxycyclohexylamino)pyrimidine-5-carboxamide]", "IC50": "< 0.2"}, {"smiles": "CC(C)CC(C)(C)Nc1nc(N[C@H]2CC[C@H](O)CC2)ncc1C(N)=O", "note": "[Example 369, 4-(2,4-dimethylpentan-2-ylamino)-2-((1r,4r)-4-hydroxycyclohexylamino)pyrimidine-5-carboxamide]", "IC50": "< 0.2"}]}]}
